Test: xn = mol fraction of the nth substance listed, in the solute-free solvent

Cc1[nH]c(=O)c(C#N)cc1-c1ccncc1 + OCCO + O
solubility (g/100 g solution)
Details	278.15 K	283.15 K	288.15 K	293.15 K	298.15 K	303.15 K	308.15 K	313.15 K	318.15 K	323.15 K
x2 = 0.03125	0.000882	0.00106	0.00125	0.00147	0.00171	0.00196	0.00222	0.00252	0.00285	0.00321
x2 = 0.06767	0.00131	0.00157	0.00185	0.00216	0.00252	0.00288	0.00326	0.0037	0.00417	0.0047
x2 = 0.1107	0.00189	0.00227	0.00266	0.00311	0.00362	0.00413	0.00467	0.00529	0.00595	0.0067
x2 = 0.1622	0.00264	0.00316	0.0037	0.00432	0.00502	0.00573	0.00647	0.00732	0.00821	0.00925
x2 = 0.225	0.00351	0.0042	0.00493	0.00575	0.00666	0.0076	0.00858	0.00971	0.0109	0.0123
x2 = 0.3034	0.00434	0.00527	0.00628	0.00732	0.00847	0.00967	0.0109	0.0123	0.0138	0.0155
x2 = 0.4038	0.00509	0.00622	0.00737	0.00855	0.00992	0.0116	0.0131	0.0148	0.0165	0.0186
x2 = 0.5373	0.00576	0.00696	0.00818	0.00966	0.0113	0.0129	0.0147	0.0167	0.0186	0.0211
x2 = 0.7232	0.00605	0.0074	0.00868	0.0102	0.0118	0.0135	0.0153	0.0174	0.0195	0.0223

Cc1ncc(C[n+]2csc(CCO)c2C)c(N)n1.O=[N+]([O-])[O-] + O + CC(C)O
solubility (g/100 g solution)
Details	278.15 K	283.15 K	288.15 K	293.15 K	298.15 K	303.15 K	308.15 K	313.15 K
x2 = 0.3	0.0345	0.0413	0.051	0.06	0.0744	0.093	0.115	0.151
x2 = 0.4	0.0937	0.119	0.15	0.172	0.199	0.243	0.297	0.385
x2 = 0.5	0.228	0.257	0.305	0.372	0.453	0.573	0.715	0.897
x2 = 0.6	0.364	0.439	0.552	0.705	0.814	1.01	1.28	1.57
x2 = 0.7	0.637	0.765	0.916	1.12	1.38	1.71	2.11	2.61
x2 = 0.8	0.968	1.15	1.39	1.74	2.15	2.63	3.14	3.84
x2 = 0.9	1.18	1.47	1.83	2.33	2.85	3.48	4.26	5.2

CC(=O)N1CCN(c2ccc(OCC3COC(Cn4ccnc4)(c4ccc(Cl)cc4Cl)O3)cc2)CC1 (stereo unspecified) + CC#N + O
solubility (g/100 g solution)
Details	x2 = 0.04651	x2 = 0.0989	x2 = 0.1583	x2 = 0.2264	x2 = 0.3051	x2 = 0.397	x2 = 0.506	x2 = 0.6372	x2 = 0.798
293.15 K	0.0181	0.108	0.587	2.22	5.12	9.21	11.9	10	4.67
298.15 K	0.0214	0.122	0.681	2.63	6.07	10.5	13	11.2	5.65
303.15 K	0.024	0.137	0.794	2.95	6.89	11.7	14.2	12.5	6.84
308.15 K	0.0263	0.157	0.888	3.36	7.88	12.9	15.4	13.6	7.71
313.15 K	0.0283	0.177	0.992	3.72	8.81	13.8	16.5	14.9	8.58

CC(C)=CCCC(C)C1CCC2(C)C3=C(CCC12C)C1(C)CCC(O)C(C)(C)C1CC3 (stereo unspecified) + CCO + O
solubility (g/100 g solution)
Details	278.15 K	288.15 K	298.15 K	308.15 K	318.15 K
x2 = 0.01604	3.88e-05	6.47e-05	0.000106	0.000176	0.000263
x2 = 0.1154	0.000122	0.000181	0.000283	0.000357	0.000444
x2 = 0.3147	0.000276	0.000461	0.000699	0.00134	0.00191
x2 = 0.7415	0.245	0.366	0.512	0.754	0.839

Nc1[nH]c(=O)ncc1F + CN(C)C=O + CC(C)O
solubility (g/100 g solution)
Details	283.15 K	288.15 K	293.15 K	298.15 K	303.15 K	308.15 K	313.15 K	318.15 K	323.15 K
x2 = 0.0837	0.0457	0.057	0.0702	0.0871	0.105	0.126	0.149	0.174	0.203
x2 = 0.1705	0.0578	0.0715	0.0887	0.107	0.128	0.152	0.178	0.209	0.245
x2 = 0.2605	0.0731	0.0892	0.107	0.13	0.155	0.183	0.214	0.248	0.285
x2 = 0.354	0.0896	0.107	0.127	0.153	0.182	0.214	0.249	0.288	0.333
x2 = 0.4512	0.106	0.126	0.151	0.18	0.213	0.248	0.284	0.327	0.376
x2 = 0.5522	0.121	0.143	0.17	0.203	0.236	0.273	0.315	0.36	0.413
x2 = 0.6573	0.137	0.16	0.189	0.221	0.258	0.298	0.342	0.391	0.447
x2 = 0.7668	0.153	0.18	0.209	0.242	0.281	0.322	0.369	0.426	0.484
x2 = 0.8809	0.173	0.201	0.23	0.267	0.306	0.351	0.402	0.46	0.524

CN1CCN(C2=Nc3cc(Cl)ccc3Nc3ccccc32)CC1 + CC#N + O
solubility (g/100 g solution)
Details	x2 = 0.04651	x2 = 0.0989	x2 = 0.1583	x2 = 0.2264	x2 = 0.3051	x2 = 0.397	x2 = 0.506	x2 = 0.6372	x2 = 0.798
278.15 K	0.00519	0.0208	0.0473	0.113	0.207	0.366	0.609	0.903	1.23
283.15 K	0.00691	0.0265	0.0589	0.138	0.248	0.431	0.707	1.04	1.39
288.15 K	0.00905	0.034	0.0735	0.168	0.296	0.507	0.817	1.18	1.55
293.15 K	0.0119	0.0432	0.0905	0.2	0.347	0.589	0.938	1.34	1.73
298.15 K	0.0151	0.0532	0.111	0.238	0.41	0.682	1.08	1.5	1.95
303.15 K	0.0193	0.0662	0.135	0.283	0.481	0.794	1.22	1.7	2.16
308.15 K	0.0247	0.0831	0.164	0.336	0.558	0.91	1.39	1.92	2.39
313.15 K	0.0308	0.101	0.197	0.398	0.642	1.05	1.56	2.11	2.64
318.15 K	0.0384	0.123	0.233	0.465	0.746	1.19	1.75	2.37	2.91
323.15 K	0.0473	0.15	0.281	0.542	0.855	1.35	1.96	2.63	3.2
328.15 K	0.059	0.178	0.335	0.625	0.985	1.53	2.18	2.9	3.49
